From patent US20200385398A1, “NEW BICYCLIC DERIVATIVES” (Elanco Tiergesundheit AG, priority 2019, published 2020) come the findings set out here.

The test system of this experiment is D. immitis microfilariae. Kind of experiment: Dog heart worm microfilariae motility assay. The class given is cell-based. The note with it: Dirofilaria immitis, read-out: EC50 (motility inhibition).

Usually EC50 stands for the concentration that produces a half-maximal response.

In the case of `O=C(NN1CCOc2ccccc21)c1cnc2c(-c3cc(F)cc(F)c3F)cccc2c1N1CCSCC1` [Example 5.10, N-(2,3-dihydro-1,4-benzoxazin-4-yl)-4-thiomorpholino-8-(2,3,5-trifluorophenyl)quinoline-3-carboxamide], the EC50 was below 0.1 µg/mL.
